Patent US7223733B2, “Modulation of TRIP-Br function and method of treating proliferative disorders” (National University of Singapore, priority 2004, dated 2007)
Where no end group is shown, it is not given here. [invdT] = inverted (3'-3') thymidine

How the values were obtained:
Format in all cases: cell-based, human
[1] = test system: PARP cleavage; experiment: Western blot analysis of PARP cleavage in U2OS cells; settings: 50 μM decoy peptides, 72 h
Procedure: Denaturing SDS-PAGE and western blotting. Proteins from whole cell lysate and IP complexes were separated using standard denaturing polyacrylamide gel electrophoresis as described previously (Hsu, S. I. H., et al. EMBO J 20, 2273-2285 (2001)).
FIG. 6: Caspase assay. (A) Caspase 3 protease activity in U2OS cells exposed to either Eto (Etoposide) for 24 h or 50 μM decoy peptides for 48 or 72 h, were assayed using the Ac-DEVD-AFC fluorogenic substrate. […] Values represent the average +/− standard deviation of two independent experiments. Control: cells cultured in normal growth medium; Vehicle: cells cultured in the presence of 0.5% DMSO; (B) Western blot analysis of PARP cleavage. U2OS cells were exposed to either Eto (Etoposide) for 24 h or 50 μM decoy peptides for 72 h. Lane 1: Vehicle cells (cultured in the presence of 0.5% DMSO for 24 h); Lane 2: 25 μM Eto; Lane 3: 250 μM Eto; Lane 4: Vehicle (cells cultured in the presence of 0.5% DMSO for 72 h); Lane 5: *SCR; Lane 6: *Br1; Lane 7: *Br2.

[2] = test system: WI-38 cells; experiment: BrdU incorporation, serum-induced S phase entry of WI-38 cells; settings: WI-38, 0.1 μM, 20 h; compared to unstimulated cells
Procedure: DNA enzyme transfection. WI-38 cells were rendered quiescent by cultivation in serum-free medium for 72 h before being transfected with DNA enzyme (0.1 μM) using Superfect as reported previously (Santiago, F. S., et al. Nat Med 5, 1264-1269 (1999)) in accordance to manufacturer's recommendations (Qiagen).
Cell proliferation assays. For the BrdU incorporation assays, growth-quiescent WI-38 cells in 96-well dishes were transfected with DNA enzyme and/or 100 ng of pCMV/E2F1, pCMV/DP1, pRSV/Cyclin E, or pCMV/Cdk2 and then exposed to Bromodeoxyuridine (BrdU, 100 μM) in the presence or absence of 10% FBS for 20 h. Bromodeoxyuridine (BrdU) incorporation was monitored with a calorimetric ELISA assay using a cell proliferation kit according to manufacturer's recommendations (Boehringer Mannheim). For manual cell count, growth-quiescent WI-38 cells in 24-well dishes were transfected with DNA enzyme and then exposed to 10% FBS for 72 h. The cells were rinsed with PBS, pH 7.4, and trypsinized, and 10 μl of cell suspension was taken from each sample and mixed with equal volume of trypan blue stain (Sigma, 0.4% w/v in 1×PBS). The number of unstained cells was enumerated manually using a hemocytometer. For colony formation assays, growth-quiescent WI-38 cells in 12-well dishes were transfected with DNA enzyme and then exposed to 10% FBS for 120 h. Cells were stained in situ with crystal violet (0.75% w/v hexamethyl-p-rosaniline chloride [SIGMA], 50% ethanol, 1.75% w/v paraformaldehyde, 0.25% w/v NaCl) for 10 min, and then rinsed thoroughly with deionized water to remove excess stains.
FIG. 13: (A) E-Br1 or E-Br2 suppresses serum-inducible S phase entry. Sub-confluent WI-38 cells were serum-starved for 72 h. Following DNA enzyme transfection, the cultures were re-stimulated with serum and allowed to proliferate in BrdU labeling medium. After 20 h, cells were assayed for BrdU incorporation with a colorimetric ELISA assay. Values represent the average of at least two independent experiments. […] Sub-confluent WI-38 cells were serum-starved for 72 h. […]

[3] = test system: CCNE gene; experiment: Semi-quantitative RT-PCR of CCNE in serum-stimulated WI-38 cells; settings: WI-38, serum stimulation
Procedure: Semi-quantitative RT-PCR. Following various treatments, WI-38 cells in 6-well culture dish were subjected to total RNA extraction using the TRIZOL® Reagent (Life Technologies). Total RNA (4 μg) was reversed transcribed using oligo-dT and M-MLV reverse transcriptase in a total reaction volume of 20 μl. Polymerase Chain Reactions (PCR) were carried out on 3 μl cDNA sample in the presence of […] deoxyribonucleotide triphosphates (dNTPs) and 40 μM of specific primer pairs in a total reaction volume of 50 μl. The cycling profile for PCR was as follow: 30 cycles of denaturation (94° C., 30 sec), annealing (51° C., 30 sec) and extension (72° C., 2 min), with a 2-minute initial denaturation step at 94° C. and a 10-minute polishing step at 72° C. at the end. Sequences of gene-specific primers are available upon request. Post-PCR samples were analyzed by agarose gel electrophoresis.
FIG. 14: (A) E-Br1 or E-Br2 attenuates mitogen-stimulated CCNE gene induction. Sub-confluent WI-38 cells were serum-starved for 72 h. Following DNA enzyme transfection, the cultures were re-stimulated with serum and allowed to proliferate. After 20 h, cells were harvested and total RNA extracted for semi-quantitative RT-PCR to assess CCNE expression. β-actin was included as an internal control. PCR products were resolved by agarose gel electrophoresis and ethidium bromide-stained DNA bands were visualized under UV. […]

Row | Substance | PARP cleavage compared to vehicle or *SCR-treated control [1] | BrdU incorporation on serum stimulation [2] | serum-induced CCNE gene activation [3]
1 | ERQIKIWFQNRRMKWKKTGFLTDLTLDDILFADID (ERQIKIWFQNRRMKWKKTGFLTDLTLDDILFADID-NH2) [*Br2] | not associated with significant PARP cleavage |  | 
2 | 5′-T TACCCAACAGGCTAGCTACAACGAATATCACA-3′ (DNA TTACCCAACAGGCTAGCTACAACGAATATCACA; DNA, 3' [invdT], backbone not given here) [E-Br2] |  | significantly inhibited | suppressed
3 | 5′-T TGCTCAGCAGGCTAGCTACAACGACTTGCTCA-3′ (DNA TTGCTCAGCAGGCTAGCTACAACGACTTGCTCA; DNA, 3' [invdT], backbone not given here) [E-Br1] |  | significantly inhibited | suppressed
4 | ERQIKIWFQNRRMKWKKATGCLLDDGLEGLFEDID (ERQIKIWFQNRRMKWKKATGCLLDDGLEGLFEDID-NH2) [*Br1] | not associated with significant PARP cleavage |  | 
